Where “and” joins values, the source holds several entries; their conditions need not be identical. Equal values may be shown once. ± gives the expanded uncertainty stated by the source.
What was measured:
[1] = molar enthalpy of vaporization or sublimation; conditions: 298.15 K; Crystal; Static calorimetry
[2] = Crystal; for vapor or sublimation pressure: Calculated from knudsen effusion weight loss; for Normal melting temperature: DTA
[3] = Molar enthalpy of transition or fusion; conditions: Crystal; DSC

O=[N+]([O-])c1ccc2c(c1)Cc1ccccc1-2 [2-nitro-9H-fluorene]
Conditions | Molar enthalpy of transition or fusion [kJ/mol] | Normal melting temperature [°C] | molar enthalpy [kJ/mol]
[1] | – | – | 114 ± 2.5
[2] | – | 156.74 ± 0.71 | –
[3] | 24.8 ± 0.56 | – | –

[2]
Conditions | vapor or sublimation pressure
357.16 K | 9e-05 ± 1e-05 kPa and 9.2e-05 ± 1e-05 kPa
359.13 K | 0.000115 ± 1.2e-05 kPa and 0.000114 ± 1.2e-05 kPa and 0.000111 ± 1.2e-05 kPa
361.11 K | 0.000141 ± 1.5e-05 kPa and 0.000139 ± 1.5e-05 kPa and 0.00014 ± 1.5e-05 kPa
363.16 K | 0.000172 ± 1.8e-05 kPa and 0.00017 ± 1.8e-05 kPa
365.14 K | 0.000217 ± 2.3e-05 kPa and 0.000209 ± 2.2e-05 kPa and 0.000213 ± 2.3e-05 kPa
367.11 K | 0.000261 ± 2.8e-05 kPa and 0.000258 ± 2.7e-05 kPa
369.16 K | 0.000315 ± 3.3e-05 kPa and 0.000322 ± 3.4e-05 kPa
371.13 K | 0.000398 ± 4.2e-05 kPa and 0.000377 ± 4e-05 kPa and 0.000392 ± 4.2e-05 kPa
373.1 K | 0.000478 ± 5.1e-05 kPa and 0.000472 ± 5e-05 kPa and 0.000474 ± 5e-05 kPa
375.15 K | 0.000565 ± 6e-05 kPa and 0.000561 ± 6e-05 kPa and 0.000578 ± 6.1e-05 kPa
377.14 K | 0.000696 ± 7.4e-05 kPa and 0.000707 ± 7.5e-05 kPa and 0.000678 ± 7.2e-05 kPa
379.12 K | 0.000839 ± 8.9e-05 kPa and 0.000844 ± 9e-05 kPa and 0.000829 ± 8.8e-05 kPa

Nc1ccc2c(c1)Cc1ccccc1-2 [2-aminofluorene]
Conditions | Molar enthalpy of transition or fusion [kJ/mol] | Normal melting temperature [°C] | molar enthalpy [kJ/mol]
[1] | – | – | 110 ± 1.8
[2] | – | 127.79 ± 0.39 | –
[3] | 23.8 ± 0.54 | – | –

[2]
Conditions | vapor or sublimation pressure
345.16 K | 0.000121 ± 1.3e-05 kPa and 0.00012 ± 1.3e-05 kPa and 0.000118 ± 1.3e-05 kPa
347.13 K | 0.000155 ± 1.6e-05 kPa and 0.000154 ± 1.6e-05 kPa and 0.000148 ± 1.6e-05 kPa
349.17 K | 0.000189 ± 2e-05 kPa and 0.000182 ± 1.9e-05 kPa and 0.00019 ± 2e-05 kPa
351.15 K | 0.000238 ± 2.5e-05 kPa and 0.000226 ± 2.4e-05 kPa
353.1 K | 0.000286 ± 3e-05 kPa and 0.000283 ± 3e-05 kPa and 0.000291 ± 3.1e-05 kPa
355.17 K | 0.00035 ± 3.7e-05 kPa and 0.000348 ± 3.7e-05 kPa and 0.000362 ± 3.8e-05 kPa
357.13 K | 0.000447 ± 4.7e-05 kPa and 0.000436 ± 4.6e-05 kPa and 0.000432 ± 4.6e-05 kPa
359.16 K | 0.000546 ± 5.8e-05 kPa and 0.000522 ± 5.5e-05 kPa and 0.000551 ± 5.8e-05 kPa
361.13 K | 0.000675 ± 7.2e-05 kPa and 0.000647 ± 6.9e-05 kPa and 0.000664 ± 7e-05 kPa
363.1 K | 0.000811 ± 8.6e-05 kPa and 0.000789 ± 8.4e-05 kPa and 0.000805 ± 8.5e-05 kPa
365.09 K | 0.000994 ± 0.00011 kPa and 0.000997 ± 0.00011 kPa and 0.000981 ± 0.0001 kPa

— the NIST ThermoML archive (doi:10.1016/j.jct.2014.03.005)
